We go through eight compounds from article PMC12441791, “Structural modifications of toxyloxanthone C and macluraxanthone isolated from Maclura cochinchinensis: cytotoxicity, antibacterial activity, and in silico studies” (RSC Advances, 2025).

Data set [1] deals with HelaS3 (human cervical carcinoma) cells. Kind of data set: In vitro cytotoxicity, HelaS3. The format is cell-based. As to conditions: HeLa S3. How it is done: (§1) All types of cancer and non-tumorigenic cells were purchased from ATCC. Cytotoxicity assays against human cervical carcinoma (HelaS3; ATCC CCL2-2), human hepatocellular carcinoma (HepG2; ATCC HB-8065), human lung carcinoma (A549; ATCC CCL-185), and African green monkey kidney (Vero; ATCC CCL-81) cell lines were performed by […].[44] Cells proliferation was performed using the MTT colorimetric assay,[44] as in our previous publication.[4]

Data set [2] relates to A549 (human lung carcinoma) cells. Kind of data set: In vitro cytotoxicity, A549. Format: cell-based. As for the experimental part:
as §1

Data set [3] concerns HepG2 (human hepatocellular carcinoma) cells. Description: In vitro cytotoxicity, HepG2. The format is cell-based. How it is done: as §1
Data set [4] is described as follows: In vitro cytotoxicity, Vero normal cells. The format is cell-based, African green monkey. The conditions noted are these: African green monkey, Vero cells (kidney, non-tumorigenic). How it is done: as §1
Data set [5] deals with Methicillin resistant Staphylococcus aureus (MRSA). Description: Antibacterial microdilution MIC, MRSA. The format is cell-based. The conditions noted are these: read-out: MIC MRSA. As for the experimental part:
(§2) Four bacterial cultures Bacillus cereus ATCC 11778, Bacillus subtilis ATCC 6633, Staphylococcus aureus ATCC 25923, and Methicillin resistant Staphylococcus aureus (MRSA) were employed as the test organisms. Minimum inhibitory concentration (MIC) values were determined using the dilution method, as described in the M07-A9,[45] as described in our previous paper.[4,46]
(Broth dilution looks for growth in wells or tubes with falling amounts of substance.)

A further data set concerns S. aureus ATCC 25923. Kind of data set: Antibacterial microdilution MIC, S. aureus. Format: cell-based. As to conditions: Staphylococcus aureus. As for the experimental part:
as §2

Data set [6] has as its system Bacillus subtilis ATCC 6633. Description: Antibacterial microdilution MIC, B. subtilis. The format is cell-based. As for the experimental part: as §2
In data set [7] the test system is Bacillus cereus ATCC 11778. Description: Antibacterial microdilution MIC, B. cereus. Format: cell-based. How it is done: as §2
Data set [8] has as its system MRSA, S. aureus, B. subtilis, and B. cereus. Description: Antibacterial activity stated over all four Gram-positive strains. The format is cell-based. As to conditions: MRSA, S. aureus, B. subtilis, B. cereus taken together. How it is done:
as §2

Data set [9] has as its system HelaS3, A549, and HepG2 cancer cell lines. Description: Cytotoxicity stated over the three cancer cell lines. Format: cell-based, human. The conditions noted are these: HelaS3, A549, HepG2 taken together. How it is done:
as §1

The mark [10] stands for this setting: ATCC25923, microdilution method, ATCC 25923, read-out: MIC S. aureus.
The mark [11] stands for this setting: ATCC6633, microdilution method, ATCC 6633, read-out: MIC B. subtilis.
Setting [12] is: ATCC11778, microdilution method, ATCC 11778, read-out: MIC B. cereus.

SMILES strings stand for the structures. Converted amounts (≈) assume the structure as drawn. Where two headings read alike, the source gives them in different places. Where only a bound is given, the exact number is not on record here.

As for `CC1Oc2cc3oc4c(OS(C)(=O)=O)c(OS(C)(=O)=O)ccc4c(=O)c3c(O)c2C1(C)C` (centres unmarked) [Compound 1c, 5,6-Dimesyloxytoxyloxanthone C], the IC50 in data set [1] is 65.3 ± 3.92 µM; in data set [2], above 100 µM; in data set [3], above 100 µM; in data set [4] it was above 100 µM. The minimal inhibitory concentration (MIC) (in data set [5] (microdilution method); in the data set with S. aureus ATCC 25923 (setting [10]); in data set [6] (setting [11]); in data set [7] (setting [12])) was above 128 µg/mL in each case. Also, in data set [8], the “MIC against all bacterial strains tested” value is “no antibacterial activity”.
In the case of `CCOc1ccc2c(=O)c3c(O)c4c(cc3oc2c1OCC)OC(C)C4(C)C` (centres unmarked) [Compound 1e, 5,6-Diethoxytoxyloxanthone C], the concentration for half-maximal inhibition (IC50) is 50.4 ± 8.45 µM in data set [1], above 100 µM in data set [2], above 100 µM in [3] and above 100 µM in data set [4]. Moreover, the minimal inhibitory concentration (MIC) (in data set [5] (microdilution method); in the data set on S. aureus ATCC 25923 (setting [10]); in data set [6] (setting [11]); in data set [7] (setting [12])) was above 128 µg/mL each time. Moreover, the “MIC against all bacterial strains tested” value in [8] is recorded as “no antibacterial activity”.
In the case of `C=CC(C)(C)c1c2c(c(OC(=O)CCCC)c3c(=O)c4ccc(OC(=O)CCCC)c(OC(=O)CCCC)c4oc13)C=CC(C)(C)O2` [Compound 2b, 1,5,6-Tripentanoyloxymacluraxanthone], the IC50 is 55.3 ± 2.18 µM in [1], 41.8 ± 1.91 µM in data set [2], above 100 µM in data set [3] and 36 ± 2.32 µM in [4]. For the same compound, the minimum inhibitory concentration (MIC) (in data set [5] (microdilution method); in the data set on S. aureus ATCC 25923 (setting [10]); in data set [6] (setting [11]); in data set [7] (setting [12])) was above 128 µg/mL each time.
Turning to `C=CC(C)(C)c1c2c(c(O)c3c(=O)c4ccc(OS(C)(=O)=O)c(OS(C)(=O)=O)c4oc13)C=CC(C)(C)O2` [Compound 2c, 5,6-Dimesyloxymacluraxanthone], the 50% inhibitory concentration (IC50) in data set [1] is 84.3 ± 7.86 µM; in data set [2], 48.8 ± 4.73 µM; in data set [3] it was above 100 µM; in data set [4] it was above 100 µM. Further, the MIC (in data set [5] (microdilution method); in the data set with S. aureus ATCC 25923 (setting [10]); in [6] (setting [11]); in data set [7] (setting [12])) was above 128 µg/mL each time.
Consider `C=CC(C)(C)c1c2c(c(O)c3c(=O)c4ccc(OC)c(OC)c4oc13)C=CC(C)(C)O2` [Compound 2d, 5,6-Dimethoxymacluraxanthone], for which the IC50 in data set [1], in data set [2], in data set [3] and in data set [4] was above 100 µM throughout. Also, the MIC (in data set [5] (microdilution method); in the data set with S. aureus ATCC 25923 (setting [10]); in data set [6] (setting [11]); in [7] (setting [12])) was above 128 µg/mL each time. Besides, the “Cytotoxicity against three cancer cell lines (IC50 values, range over lines)” value in data set [9] was “no cytotoxicity”.
In the case of `C=CC(C)(C)c1c2c(c(O)c3c(=O)c4ccc(O)c(OC)c4oc13)C=CC(C)(C)O2` [Compound 2e, 5-Methoxymacluraxanthone], the concentration for half-maximal inhibition (IC50) in data set [1] is above 100 µM; in data set [2] it was 90.5 ± 6.23 µM; in data set [3], above 100 µM; in data set [4], above 100 µM. For the same compound, the minimal inhibitory concentration (MIC) (in data set [5] (microdilution method); in the data set on S. aureus ATCC 25923 (setting [10]); in data set [6] (setting [11]); in [7] (setting [12])) was above 128 µg/mL each time.
Regarding `COc1cccc2c1C(=O)c1c(O)c3c(c(O)c1C2=O)C[C@@](O)(C(=O)CO)C[C@@H]3O[C@H]1C[C@H](N)[C@H](O)[C@H](C)O1` [Doxorubicin, reference compound], the half-inhibitory concentration (IC50) in data set [1] amounted to 0.29 ± 0.02 µM; in [2], 0.48 ± 0.036 µM; in data set [3], 0.37 ± 0.02 µM; in data set [4], 1.95 ± 0.13 µM.
`CN[C@H](CC(C)C)C(=O)N[C@H]1C(=O)N[C@@H](CC(N)=O)C(=O)N[C@H]2C(=O)N[C@H]3C(=O)N[C@H](C(=O)N[C@H](C(=O)O)c4cc(O)cc(O)c4-c4cc3ccc4O)[C@H](O)c3ccc(c(Cl)c3)Oc3cc2cc(c3O[C@@H]2O[C@H](CO)[C@@H](O)[C@H](O)[C@H]2O[C@H]2C[C@](C)(N)[C@H](O)[C@H](C)O2)Oc2ccc(cc2Cl)[C@H]1O` [Vancomycin, reference compound]: the MIC in data set [5] is 2 µg/mL (≈ 1.38 µM); with S. aureus ATCC 25923 (ATCC25923, read-out: MIC S. aureus), 2 µg/mL (≈ 1.38 µM); in data set [6] (ATCC6633, read-out: MIC B. subtilis), 2 µg/mL (≈ 1.38 µM); in [7] (ATCC11778, read-out: MIC B. cereus), 1 µg/mL (≈ 0.69 µM).

For orientation: IC50 means the concentration needed to halve the response being measured. Read a low IC50 as inhibition by little substance. A word on the MIC: it is the lowest concentration that inhibits growth of the organism.
